Several values for one entry are separate records, joined by “and”; a condition that tells them apart may be missing. Equal values may be shown once.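 Assay format: 96-well plates, 48-hour exposure. Here, GI50 denotes the concentration required for 50% inhibition of growth. TGI: total growth inhibition.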
The molecules below were run on M14 melanoma (assay: DTP human tumour cell line panel, 48 h).

Structure (SMILES) | TGI
O=C1C/C(Br)=C\c2ccccc2-c2ccccc21 | 5.27 µM
CNc1cc2oc(=O)cc(C)c2cc1C | > 100 µM

The molecules below were run on NCI-H460 lung (assay: DTP human tumour cell line panel, 48 h).

Structure (SMILES) | GI50 | TGI
COC(=O)C1=CN(CC2=CC(=O)C(C)=CC2=O)C=C(C(=O)OC)C1c1ccccc1OC | 33.7 µM | > 87.7 µM
COC(=O)/C=C/c1cc(OC(C)=O)c2c(c1)C(C(=O)OC)C(c1ccc(OC(C)=O)c(OC(C)=O)c1)O2 (stereo not drawn) | 1.03 µM | 13.6 µM
O=C(O)c1ccc(CNCc2ccccc2)cc1 | – | > 100 µM
Cc1cc2c(cc1C)[n+](=O)cc(C(=O)C/C(=N/NC(=S)NN)C(=O)Nc1cccc(C(F)(F)F)c1)n2[O-] | – | > 100 µM
COCOCCC#CCO | – | > 100 µM
CC(C)=CCC1=C(O)c2ccccc2C(=O)C1=O | – | > 100 µM
O=[N+]([O-])c1ccccc1N=Nc1c(O)[nH]c2c(Cl)cc(Cl)cc12 | – | > 100 µM
NC(=S)N/N=C/c1ncccc1O | 3.17 µM | 48.5 µM and 25.2 µM
O=C(CC(=O)Nc1ccccc1)NNC(Sc1ccccc1)c1cc(N=Nc2ccc(Br)cc2)ccc1O (stereo not drawn) | – | > 10 µM
CCOc1ccc(OCC(=O)O)c2c1CCCC2=O | – | > 100 µM
Cc1cc(C(=O)CSC(=S)SC(C)(C)C)ccc1Cl | – | 28.3 µM
C=CC12CCN(CC1)C(C(O)c1ccnc3ccc(OC)cc13)C2 (stereo not drawn) | > 100 µM | > 100 µM
O=C(Nc1nc(-c2c[nH]c3ccccc23)cs1)c1n[nH]c(=O)c2ccccc12 | 0.451 µM | > 36.8 µM
CN(C)CCN1CCC(Cc2ccccc2)CC1 | > 80 µM | > 80 µM
COc1cc2c3c(n(C)c(=O)c2cc1OC)-c1cc2c(cc1C3=O)OCO2 | – | > 100 µM
COc1ccc(/C=C\c2cc(OC)c(OC)c(OC)c2)cc1OCC(=O)O | – | > 55.3 µM
CCOc1ccc(NC(=O)CC2SC(=Nc3ccc(C)cc3C)NC2=O)cc1 (stereo not drawn) | – | > 100 µM
CCSc1nc(N=Cc2ccccc2O)c2cn[nH]c2n1 | 30.7 µM | > 100 µM
O=C(Nc1ncc(Cc2cccc(C(F)(F)F)c2)s1)c1ccc2c(c1)OCCO2 | 0.349 µM | > 38.2 µM
NC(=O)c1cc(I)ccc1NC(=O)/C=C/c1ccccc1 | 0.417 µM | 3.44 µM
COc1ccc(CNc2c3ccccc3nc3ccccc23)cc1F | 3.15 µM | 10.4 µM
CCn1cc(-c2ccnc3[nH]c(-c4cccc(CN(C)C)c4)cc23)c(-c2ccc(NC(=O)N(C)C)cc2)n1 | 0.209 µM and 0.109 µM | 13.7 µM and > 10 µM
O=C1C/C(Br)=C\c2ccccc2-c2ccccc21 | – | 10.4 µM
CNc1cc2oc(=O)cc(C)c2cc1C | – | > 100 µM

The molecules below were run on OVCAR-5 ovarian (assay: DTP human tumour cell line panel, 48 h).

Structure (SMILES) | GI50 | TGI
COC(=O)C1=CN(CC2=CC(=O)C(C)=CC2=O)C=C(C(=O)OC)C1c1ccccc1OC | 19.7 µM | 34.9 µM
COC(=O)/C=C/c1cc(OC(C)=O)c2c(c1)C(C(=O)OC)C(c1ccc(OC(C)=O)c(OC(C)=O)c1)O2 (stereo not drawn) | 3.42 µM | > 100 µM
O=C(O)c1ccc(CNCc2ccccc2)cc1 | – | > 100 µM
Cc1cc2c(cc1C)[n+](=O)cc(C(=O)C/C(=N/NC(=S)NN)C(=O)Nc1cccc(C(F)(F)F)c1)n2[O-] | – | > 100 µM
COCOCCC#CCO | – | > 100 µM
CC(C)=CCC1=C(O)c2ccccc2C(=O)C1=O | 56.2 µM | > 100 µM
O=[N+]([O-])c1ccccc1N=Nc1c(O)[nH]c2c(Cl)cc(Cl)cc12 | – | > 100 µM
NC(=S)N/N=C/c1ncccc1O | 5.21 µM | > 82.4 µM and 154 µM
O=C(CC(=O)Nc1ccccc1)NNC(Sc1ccccc1)c1cc(N=Nc2ccc(Br)cc2)ccc1O (stereo not drawn) | – | > 10 µM
CCOc1ccc(OCC(=O)O)c2c1CCCC2=O | – | > 100 µM
Cc1cc(C(=O)CSC(=S)SC(C)(C)C)ccc1Cl | – | 43.9 µM
C=CC12CCN(CC1)C(C(O)c1ccnc3ccc(OC)cc13)C2 (stereo not drawn) | > 100 µM | > 100 µM
O=C(Nc1nc(-c2c[nH]c3ccccc23)cs1)c1n[nH]c(=O)c2ccccc12 | 73 µM | > 100 µM
CN(C)CCN1CCC(Cc2ccccc2)CC1 | > 80 µM | > 80 µM
COc1cc2c3c(n(C)c(=O)c2cc1OC)-c1cc2c(cc1C3=O)OCO2 | – | > 100 µM
COc1ccc(/C=C\c2cc(OC)c(OC)c(OC)c2)cc1OCC(=O)O | – | > 100 µM
CCOc1ccc(NC(=O)CC2SC(=Nc3ccc(C)cc3C)NC2=O)cc1 (stereo not drawn) | – | > 100 µM
CCSc1nc(N=Cc2ccccc2O)c2cn[nH]c2n1 | 21.1 µM | 66.9 µM
O=C(Nc1ncc(Cc2cccc(C(F)(F)F)c2)s1)c1ccc2c(c1)OCCO2 | 0.617 µM | > 100 µM
NC(=O)c1cc(I)ccc1NC(=O)/C=C/c1ccccc1 | 3.17 µM | > 51.8 µM
COc1ccc(CNc2c3ccccc3nc3ccccc23)cc1F | 3.52 µM | 13.5 µM
CCn1cc(-c2ccnc3[nH]c(-c4cccc(CN(C)C)c4)cc23)c(-c2ccc(NC(=O)N(C)C)cc2)n1 | 1.56 µM and 4.74 µM | 14.6 µM and > 10 µM
O=C1C/C(Br)=C\c2ccccc2-c2ccccc21 | – | 6.06 µM
CNc1cc2oc(=O)cc(C)c2cc1C | – | > 100 µM

What follows are molecules tested on SK-MEL-2 melanoma (assay: DTP human tumour cell line panel, 48 h).

Structure (SMILES) | GI50 | TGI
COC(=O)C1=CN(CC2=CC(=O)C(C)=CC2=O)C=C(C(=O)OC)C1c1ccccc1OC | 45.2 µM | > 100 µM
COC(=O)/C=C/c1cc(OC(C)=O)c2c(c1)C(C(=O)OC)C(c1ccc(OC(C)=O)c(OC(C)=O)c1)O2 (stereo not drawn) | 3.69 µM | > 100 µM
O=C(O)c1ccc(CNCc2ccccc2)cc1 | – | > 100 µM
Cc1cc2c(cc1C)[n+](=O)cc(C(=O)C/C(=N/NC(=S)NN)C(=O)Nc1cccc(C(F)(F)F)c1)n2[O-] | – | > 100 µM
COCOCCC#CCO | – | > 100 µM
CC(C)=CCC1=C(O)c2ccccc2C(=O)C1=O | 68.7 µM | > 88.3 µM
O=[N+]([O-])c1ccccc1N=Nc1c(O)[nH]c2c(Cl)cc(Cl)cc12 | – | > 74.3 µM
NC(=S)N/N=C/c1ncccc1O | 21.3 µM | > 40 µM and 135 µM
O=C(CC(=O)Nc1ccccc1)NNC(Sc1ccccc1)c1cc(N=Nc2ccc(Br)cc2)ccc1O (stereo not drawn) | – | > 10 µM
CCOc1ccc(OCC(=O)O)c2c1CCCC2=O | – | > 100 µM
Cc1cc(C(=O)CSC(=S)SC(C)(C)C)ccc1Cl | – | 35 µM

From PubChem BioAssay (NCI)
